Test system: NCI-H322M multicellular tumor spheroids, viability (% test/control)
Assay: Anticancer human tumor NCI-H322M cell line growth inhibition;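 for viability, T/C: spheroids exposed to compound for seven days before readout; 100% = DMSO vehicle control wells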
Details: for IC50: curve of first compound; for viability, T/C: stronger effect = lower value
Summary of the method: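 Single agents and combinations were tested on spheroids built from tumor cells plus HUVEC and hMSC, at half-log dilutions starting at or near clinical Cmax, else 10 microM; final DMSO 0.25% (v/v).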

[1] = second compound 30 pM, first compound 0.0316 µM
[2] = second compound 30 pM, first compound 0.1 µM
[3] = second compound 30 pM, first compound 0.316 µM
[4] = second compound 30 pM, first compound 1 µM
[5] = second compound 30 pM, first compound 3.16 µM
[6] = second compound 30 pM, first compound 10 µM
[7] = second compound 94.9 pM, first compound 0.0316 µM
[8] = second compound 94.9 pM, first compound 0.1 µM
[9] = second compound 94.9 pM, first compound 0.316 µM
[10] = second compound 94.9 pM, first compound 1 µM
[11] = second compound 94.9 pM, first compound 3.16 µM
[12] = second compound 94.9 pM, first compound 10 µM
[13] = second compound 0.0003 µM, first compound 0.0316 µM
[14] = second compound 0.0003 µM, first compound 0.1 µM
[15] = second compound 0.0003 µM, first compound 0.316 µM
[16] = second compound 0.0003 µM, first compound 1 µM
[17] = second compound 0.0003 µM, first compound 3.16 µM
[18] = second compound 0.0003 µM, first compound 10 µM
[19] = second compound 0.000949 µM, first compound 0.0316 µM
[20] = second compound 0.000949 µM, first compound 0.1 µM
[21] = second compound 0.000949 µM, first compound 0.316 µM
[22] = second compound 0.000949 µM, first compound 1 µM
[23] = second compound 0.000949 µM, first compound 3.16 µM
[24] = second compound 0.000949 µM, first compound 10 µM
[25] = second compound 0.003 µM, first compound 0.0316 µM
[26] = second compound 0.003 µM, first compound 0.1 µM
[27] = second compound 0.003 µM, first compound 0.316 µM
[28] = second compound 0.003 µM, first compound 1 µM
[29] = second compound 0.003 µM, first compound 3.16 µM
[30] = second compound 0.003 µM, first compound 10 µM

## CC1COCCN1c1cc(-c2ccnn2C)c2ccnc(-c3ccn[nH]3)c2n1 (stereo not given) + COc1cc2c(cc1O)CCNC21CSC2c3c(OC(C)=O)c(C)c4c(c3C(COC1=O)N1C(O)C3Cc5cc(C)c(OC)c(O)c5C(C21)N3C)OCO4
Second compound 30 pM
  IC50: < 0.0316 µM
Second compound 94.9 pM
  IC50: < 0.0316 µM
Second compound 0.0003 µM
  IC50: < 0.0316 µM
Second compound 0.000949 µM
  IC50: < 0.0316 µM
Second compound 0.003 µM
  IC50: < 0.0316 µM
[1]
  viability, T/C: 50.9%
[2]
  viability, T/C: 34.8%
[3]
  viability, T/C: 28.1%
[4]
  viability, T/C: 29.2%
[5]
  viability, T/C: 31%
[6]
  viability, T/C: 33%
[7]
  viability, T/C: 42.3%
[8]
  viability, T/C: 29.3%
[9]
  viability, T/C: 27.5%
[10]
  viability, T/C: 25.9%
[11]
  viability, T/C: 29.2%
[12]
  viability, T/C: 32.3%
[13]
  viability, T/C: 28%
[14]
  viability, T/C: 21.1%
[15]
  viability, T/C: 21%
[16]
  viability, T/C: 22.7%
[17]
  viability, T/C: 24.3%
[18]
  viability, T/C: 26.8%
[19]
  viability, T/C: 19.4%
[20]
  viability, T/C: 15%
[21]
  viability, T/C: 17%
[22]
  viability, T/C: 19.7%
[23]
  viability, T/C: 18.8%
[24]
  viability, T/C: 18%
[25]
  viability, T/C: 3.51%
[26]
  viability, T/C: 3.16%
[27]
  viability, T/C: 3.09%
[28]
  viability, T/C: 2.33%
[29]
  viability, T/C: 2.23%
[30]
  viability, T/C: 0.78%

## COc1cc(C)[nH]c(=O)c1CN1CCc2c(Cl)cc(C(OC)C3COC3)c(Cl)c2C1=O (stereo not given) + COc1cc2c(cc1O)CCNC21CSC2c3c(OC(C)=O)c(C)c4c(c3C(COC1=O)N1C(O)C3Cc5cc(C)c(OC)c(O)c5C(C21)N3C)OCO4
Second compound 30 pM
  IC50: > 10 µM
Second compound 94.9 pM
  IC50: > 10 µM
Second compound 0.0003 µM
  IC50: > 10 µM
Second compound 0.000949 µM
  IC50: > 10 µM
Second compound 0.003 µM
  IC50: < 0.0316 µM
[1]
  viability, T/C: 75.3%
[2]
  viability, T/C: 82.3%
[3]
  viability, T/C: 80.6%
[4]
  viability, T/C: 84%
[5]
  viability, T/C: 84.4%
[6]
  viability, T/C: 91.7%
[7]
  viability, T/C: 92.6%
[8]
  viability, T/C: 77.5%
[9]
  viability, T/C: 83.3%
[10]
  viability, T/C: 81%
[11]
  viability, T/C: 81.4%
[12]
  viability, T/C: 84.1%
[13]
  viability, T/C: 78.7%
[14]
  viability, T/C: 94.2%
[15]
  viability, T/C: 79%
[16]
  viability, T/C: 83.4%
[17]
  viability, T/C: 97.6%
[18]
  viability, T/C: 87.2%
[19]
  viability, T/C: 81.8%
[20]
  viability, T/C: 82.2%
[21]
  viability, T/C: 82.8%
[22]
  viability, T/C: 78.8%
[23]
  viability, T/C: 74.7%
[24]
  viability, T/C: 79.5%
[25]
  viability, T/C: 6.18%
[26]
  viability, T/C: 10.3%
[27]
  viability, T/C: 6.44%
[28]
  viability, T/C: 7.13%
[29]
  viability, T/C: 4.79%
[30]
  viability, T/C: 5.29%

## Cc1cc(C)c(CNC(=O)c2cc(-c3ccc(CN4CCOCC4)cc3)cc3c2cnn3C2CCCC2)c(=O)[nH]1 + COc1cc2c(cc1O)CCNC21CSC2c3c(OC(C)=O)c(C)c4c(c3C(COC1=O)N1C(O)C3Cc5cc(C)c(OC)c(O)c5C(C21)N3C)OCO4
Second compound 30 pM
  IC50: > 10 µM
Second compound 94.9 pM
  IC50: > 10 µM
Second compound 0.0003 µM
  IC50: > 10 µM
Second compound 0.000949 µM
  IC50: > 10 µM
Second compound 0.003 µM
  IC50: < 0.0316 µM
[1]
  viability, T/C: 84.6%
[2]
  viability, T/C: 97.8%
[3]
  viability, T/C: 87.1%
[4]
  viability, T/C: 97.9%
[5]
  viability, T/C: 99.6%
[6]
  viability, T/C: 114%
[7]
  viability, T/C: 92.8%
[8]
  viability, T/C: 90.9%
[9]
  viability, T/C: 92%
[10]
  viability, T/C: 84.4%
[11]
  viability, T/C: 89.5%
[12]
  viability, T/C: 130%
[13]
  viability, T/C: 96.6%
[14]
  viability, T/C: 98.1%
[15]
  viability, T/C: 98.2%
[16]
  viability, T/C: 95.3%
[17]
  viability, T/C: 108%
[18]
  viability, T/C: 126%
[19]
  viability, T/C: 92.4%
[20]
  viability, T/C: 92.2%
[21]
  viability, T/C: 87.9%
[22]
  viability, T/C: 96.2%
[23]
  viability, T/C: 82%
[24]
  viability, T/C: 97.8%
[25]
  viability, T/C: 17.8%
[26]
  viability, T/C: 8.17%
[27]
  viability, T/C: 12.3%
[28]
  viability, T/C: 6.05%
[29]
  viability, T/C: 2.7%
[30]
  viability, T/C: 3.51%

## Cc1sc2c(c1C)C(c1ccc(Cl)cc1)=NC(CC(=O)Nc1ccc(O)cc1)c1nnc(C)n1-2 (stereo not given) + COc1cc2c(cc1O)CCNC21CSC2c3c(OC(C)=O)c(C)c4c(c3C(COC1=O)N1C(O)C3Cc5cc(C)c(OC)c(O)c5C(C21)N3C)OCO4
Second compound 30 pM
  IC50: > 3 µM
Second compound 94.9 pM
  IC50: > 3 µM
Second compound 0.0003 µM
  IC50: 1.59 µM
Second compound 0.000949 µM
  IC50: 0.333 µM
Second compound 0.003 µM
  IC50: < 0.00949 µM
Second compound 30 pM, first compound 0.00949 µM
  viability, T/C: 113%
Second compound 30 pM, first compound 0.03 µM
  viability, T/C: 118%
Second compound 30 pM, first compound 0.0949 µM
  viability, T/C: 136%
Second compound 30 pM, first compound 0.3 µM
  viability, T/C: 112%
Second compound 30 pM, first compound 0.949 µM
  viability, T/C: 74%
Second compound 30 pM, first compound 3 µM
  viability, T/C: 60.1%
Second compound 94.9 pM, first compound 0.00949 µM
  viability, T/C: 104%
Second compound 94.9 pM, first compound 0.03 µM
  viability, T/C: 112%
Second compound 94.9 pM, first compound 0.0949 µM
  viability, T/C: 123%
Second compound 94.9 pM, first compound 0.3 µM
  viability, T/C: 110%
Second compound 94.9 pM, first compound 0.949 µM
  viability, T/C: 72.5%
Second compound 94.9 pM, first compound 3 µM
  viability, T/C: 53.6%
Second compound 0.0003 µM, first compound 0.00949 µM
  viability, T/C: 117%
Second compound 0.0003 µM, first compound 0.03 µM
  viability, T/C: 133%
Second compound 0.0003 µM, first compound 0.0949 µM
  viability, T/C: 133%
Second compound 0.0003 µM, first compound 0.3 µM
  viability, T/C: 119%
Second compound 0.0003 µM, first compound 0.949 µM
  viability, T/C: 63.9%
Second compound 0.0003 µM, first compound 3 µM
  viability, T/C: 33.1%
Second compound 0.000949 µM, first compound 0.00949 µM
  viability, T/C: 127%
Second compound 0.000949 µM, first compound 0.03 µM
  viability, T/C: 87.6%
Second compound 0.000949 µM, first compound 0.0949 µM
  viability, T/C: 80.7%
Second compound 0.000949 µM, first compound 0.3 µM
  viability, T/C: 60.2%
Second compound 0.000949 µM, first compound 0.949 µM
  viability, T/C: 19.5%
Second compound 0.000949 µM, first compound 3 µM
  viability, T/C: 11.9%
Second compound 0.003 µM, first compound 0.00949 µM
  viability, T/C: 9.9%
Second compound 0.003 µM, first compound 0.03 µM
  viability, T/C: 6.99%
Second compound 0.003 µM, first compound 0.0949 µM
  viability, T/C: 6.13%
Second compound 0.003 µM, first compound 0.3 µM
  viability, T/C: 2.83%
Second compound 0.003 µM, first compound 0.949 µM
  viability, T/C: 1.47%
Second compound 0.003 µM, first compound 3 µM
  viability, T/C: 1.17%

## [2H]c1nc(C)nc([2H])c1-c1cc(NC[C@@H](C)c2cccc3c(C(=O)NC)ccnc23)ncn1 + COc1cc2c(cc1O)CCNC21CSC2c3c(OC(C)=O)c(C)c4c(c3C(COC1=O)N1C(O)C3Cc5cc(C)c(OC)c(O)c5C(C21)N3C)OCO4
Second compound 30 pM
  IC50: > 10 µM
Second compound 94.9 pM
  IC50: > 10 µM
Second compound 0.0003 µM
  IC50: > 10 µM
Second compound 0.000949 µM
  IC50: > 10 µM
Second compound 0.003 µM
  IC50: < 0.0316 µM
[1]
  viability, T/C: 80.4%
[2]
  viability, T/C: 89.1%
[3]
  viability, T/C: 85.6%
[4]
  viability, T/C: 84.7%
[5]
  viability, T/C: 75.2%
[6]
  viability, T/C: 90.2%
[7]
  viability, T/C: 81.3%
[8]
  viability, T/C: 76.7%
[9]
  viability, T/C: 92.1%
[10]
  viability, T/C: 90.1%
[11]
  viability, T/C: 85.7%
[12]
  viability, T/C: 94.9%
[13]
  viability, T/C: 89%
[14]
  viability, T/C: 78.9%
[15]
  viability, T/C: 90.5%
[16]
  viability, T/C: 84.2%
[17]
  viability, T/C: 94.9%
[18]
  viability, T/C: 93.3%
[19]
  viability, T/C: 81%
[20]
  viability, T/C: 79.3%
[21]
  viability, T/C: 84%
[22]
  viability, T/C: 82%
[23]
  viability, T/C: 76%
[24]
  viability, T/C: 75.8%
[25]
  viability, T/C: 15.8%
[26]
  viability, T/C: 12.2%
[27]
  viability, T/C: 10.5%
[28]
  viability, T/C: 10.9%
[29]
  viability, T/C: 8.62%
[30]
  viability, T/C: 5.55%
